Data taken from US7939554B2, “Protein phosphatase inhibitors” (The Cleveland Clinic Foundation, priority 2006, dated 2011).

How the values were obtained:
recombinant SHP-1 = molecular target: T1, recombinant SHP-1 (Homo sapiens, UniProt P29350); assay: rapid in vitro SHP-1 PTPase assay (DIFMUP fluorescence substrate); format: biochemical; details: L5 and analogs, 1 μg/well; FIG. 12A
T1 construct: Recombinant protein of SHP-1 PTPase catalytic domain was described
T1 sequence (P29350 244-515 limits assumed): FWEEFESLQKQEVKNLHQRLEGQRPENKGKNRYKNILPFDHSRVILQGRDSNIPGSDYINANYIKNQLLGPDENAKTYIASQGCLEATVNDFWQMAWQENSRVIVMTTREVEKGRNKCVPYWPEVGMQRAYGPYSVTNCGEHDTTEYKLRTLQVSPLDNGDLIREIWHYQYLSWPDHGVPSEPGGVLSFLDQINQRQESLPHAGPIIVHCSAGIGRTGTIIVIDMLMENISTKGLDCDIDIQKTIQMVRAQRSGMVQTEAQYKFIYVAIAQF
Procedure: Recombinant protein of SHP-1 PTPase catalytic domain was described and stored in Tris buffer (25 mM Tris, pH7.5, 1 mM EDTA, 2 μM 2-ME, 25% glycerol) at −80° C. Fluorescence substrate DIFMUP (6,8-difluoro-4 methylumbelliferyl phosphate) was purchased (Molecular Probes). SSG was reported previously (21-23) and stored at 4° C. in darkness prior to use. Human and mouse IFNγ ELISPOT Kit (R & D System), CD4^+ Cell Intracellular IFNγ Detection Kit (BD Bioscience) and CD8^+ Cell Intracellular IFNγ Detection Kit (BD Bioscience) were purchased from commercial sources. Human Jurkat T cell line (26) and murine B16 melanoma cell line (ATCC) were maintained in […] culture medium supplemented with 10% fetal calf serum (FCS). Antibodies against pLck-pY394 (Cell Signaling), pLck-pY505 (Cell Signaling), pZap70 (pY319, BD Biosciences), pSlp76 (pY128, BD Biosciences) and pLat (pY226, BD Biosciences) were purchased from commercial sources.
A rapid SHP-1 PTPase assay was developed for screening the compounds in a commercial library of 34,000 drug-like small chemicals (Chembridge, Mass.). Briefly, compounds of the library (1 μg/well in […]) were placed in 96-well plates (Falcon, 353072) and mixed with recombinant SHP-1 protein (0.1 μg/well) in […] of HEPES buffer (50 mM HEPS, pH 7.5, 150 mM NaCl, 1 mM EDTA, 0.2 mM DTT and 0.1 mg/ml BSA). The plates were incubated at room temperature for 10 minutes prior to the addition of fluorescence substrate DIFMUP (40 μM stock in HEPES buffer, 10 μl/well) to initiate PTPase reaction. Upon completion of PTPase reaction at room temperature for 1 hr in darkness, fluorescence signal of individual wells were recorded using a Vector^2 Multilabel Counter (Vector, CA). They were compared to that of control SHP-1 PTPase reaction (˜10,000 units of fluorescence signal) in the absence of any compound (100%) for calculating relative SHP-1 inhibition induced by the compounds after subtracting the background signal (˜500 units of fluorescence signal) of the substrate.
To evaluate their SHP-1 inhibitory activity, the analogs (1 μg/well in 0.2 μl DMSO) were aliquot individually to 96-well plates (Falcon, 353072) and mixed with recombinant SHP-1 protein (0.1 μg/well) in 90 μl of HEPES buffer (50 mM HEPS, pH 7.5, 150 mM NaCl, 1 mM EDTA, 0.2 mM DTT and 0.1 mg/ml BSA). The plates were incubated at room temperature for 10 minutes prior to the addition of fluorescence substrate DIFMUP (40 μM stock in HEPES buffer, 10 μl/well) to initiate PTPase reaction. Upon completion of PTPase reaction at room temperature for 1 hr in darkness, fluorescence signal of individual wells were recorded using a Vector^2 Multilabel Counter (Vector, CA). […]

SHP-2 = molecular target: T2, SHP-2 (Homo sapiens, UniProt Q06124); assay: pERK1/2 levels in L5-treated Jurkat cells; format: cell-based; set-up: endogenous in cells; host or cells: Jurkat; details: not at lower doses (0.1 to 0.001 μg/ml)
T2 sequence (Q06124 1-593): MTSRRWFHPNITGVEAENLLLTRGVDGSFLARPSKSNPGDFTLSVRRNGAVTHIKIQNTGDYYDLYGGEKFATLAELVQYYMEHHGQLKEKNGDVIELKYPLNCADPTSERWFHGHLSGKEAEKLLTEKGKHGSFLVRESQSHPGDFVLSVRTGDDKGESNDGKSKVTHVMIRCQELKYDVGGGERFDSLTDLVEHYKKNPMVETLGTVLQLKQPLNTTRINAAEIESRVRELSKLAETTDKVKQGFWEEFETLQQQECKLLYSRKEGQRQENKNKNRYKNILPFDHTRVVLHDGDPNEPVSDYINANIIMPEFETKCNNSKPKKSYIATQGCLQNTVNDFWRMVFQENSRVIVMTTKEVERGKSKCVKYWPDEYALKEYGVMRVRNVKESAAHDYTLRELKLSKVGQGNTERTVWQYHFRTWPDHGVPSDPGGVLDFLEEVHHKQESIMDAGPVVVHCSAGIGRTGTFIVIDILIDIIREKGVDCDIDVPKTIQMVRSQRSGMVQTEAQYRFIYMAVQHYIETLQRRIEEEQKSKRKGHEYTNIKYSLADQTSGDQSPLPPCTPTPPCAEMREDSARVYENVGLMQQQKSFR
Procedure: Jurkat cells in culture medium (3×10^6 cells/ml, 1 ml/tube) were treated with agents for designated times at room temperature. After brief centrifuging in a microfuge (4,000 rpm, 2 min), the cell pellet was lysed on ice for 30 min in […] of cold lysis buffer (1% NP40, 50 mM Tris, pH 7.4, 150 mM NaCl, 20 mM NaF, 0.2 mM Na3VO4 and 1 mM Na3MO4) containing a cocktail of proteinase inhibitors (Sigma, 1 tablet/10 ml). The lysates were cleared by centrifuging (14,000 rpm, 10 min) in a microfuge at 4° C. to remove insoluble parts, mixed with equal volume of 2×SDS-PAGE sample buffer, boiled for 5 min and analyzed (˜3×10^5 cells/well) by SDS-PAGE/Western blotting. Relative intensities of phosphotyrosine bands were quantified through densitometry analysis.
To assess the effects of L5 on other phosphatases, pERK1/2 and pLck-pY505 in L5-treated Jurkat cells were quantified. SHP-2 is known to be a positive mediator of pERK1/2 whereas pLck-pY505 is dephosphorylated by PTPase CD45.

Structure (SMILES): O=C1C=CC(=O)C(c2cc(Cl)ccc2Cl)=C1 [L5]
- inhibition of phosphatase activity of recombinant SHP-1 (recombinant SHP-1): completely or almost completely inhibited
- dose reducing pERK1/2 levels (SHP-2): 1 μg/ml
